These results are taken from patent US11161831B2, “Methods and compositions for treatment of muscle wasting, muscle weakness, and/or cachexia” (Baylor College of Medicine, priority 2013, dated 2021).

This data set relates to mice with CKD. Kind of data set: CKD-induced muscle wasting in mice (subtotal nephrectomy). It is filed as in vivo. The procedure:
FIGS. 21A-21G provides a small molecule inhibitor of Stat3 activation, C188-9, that blocks CKD-induced muscle wasting. FIG. 21A. Sham or CKD mice were treated with C188-9 or D5W (diluent) for 14 days. Representative western blots of p-Stat3, Stat3 and GAPDH from lysates of gastrocnemius muscles are shown (n=8 mice/group). FIG. 21B. Differences in body weights of pair-fed, sham or CKD mice treated with C188-9 or D5W at baseline and after 7 or 14 days of treatment (*p<0.05 vs. D5W sham). FIGS. 21C & 21D. Average weights of mixed fiber gastrocnemius and tibialis anterior (TA) muscles from both legs (n=7 mice/group). FIG. 21E. Cryosections of TA muscles were immunostained with anti-laminin to identify the muscle basement membrane. The myofiber areas were measured and the myofiber size distribution was calculated from the areas of ˜500 myofibers assessed by an observer blinded to treatment group (n=4 pairs of mice). FIG. 21F. Muscle force of each mouse studied in FIG. 3C was measured on four consecutive days (Experimental Procedures; n=7 mice/group). G&H. At 2 weeks of C188-9 or D5W treatment, protein synthesis (FIG. 21G) and degradation (FIG. 21H) were measured (n=8 pairs of mice; *p<0.05 vs. D5W). Values are means±SEM.
FIG. 23A. Representative western blots of the indicated proteins from lysates of gastrocnemius muscles of control (Stat3flox/flox) or Stat3 KO sham or CKD mice. FIGS. 23B & 23C. mRNAs of myostatin (FIG. 23B) and C/EBPδ in muscles of sham or CKD mice analyzed by RT-PCR (n=4 mice/group; *p<0.05 vs. Stat3flox/flox sham). FIG. 23D. Representative western blots of the indicated proteins in lysates of gastrocnemius muscles of STZ vs. WT control mice (n=5 pairs). FIG. 23E. Sham or CKD mice were treated with C188-9 or D5W (diluent) for 14 days. Representative western blots of indicated proteins from lysates of gastrocnemius muscles are shown (n=8 mice/group). FIGS. 23F & 23G. mRNA levels of myostatin (FIG. 23F) and C/EBPδ (FIG. 23G) analyzed by RT-PCR and corrected for GAPDH (n=3 mice/group: wild-type mice without CKD; sham mice treated with C188-9 or D5W; mice with CKD treated with C188-9 or D5W; *p<0.05 vs. WT non-CKD). Values are means±SEM. FIG. 6. C/EBPδ and myostatin mediate CKD or Stat3-induced muscle wasting. A. Body weights of wild type or homo- or hetero-C/EBPδ KO mice following creation of CKD. Values are expressed as a percentage of basal body weight (mean±SEM; n=9 for WT mice; n=11 for C/EBPδ−/−; n=11 for C/EBPδ+/− mice; *p<0.05 vs. WT CKD). FIG. 23B. Survival was calculated as the percentage of mice surviving at 3 weeks after CKD or after sham surgery (n=20 for WT; n=25 for C/EBPδ−/−; n=21 for C/EBPδ+/−; *p<0.05 vs. C/EBPδ−/− CKD). FIG. 23C. Average weights from both legs of red fiber (soleus) or white fiber (EDL) muscles (mean±SEM; n=10 mice/group; *p<0.05 vs. WT CKD). FIG. 23D. Representative western blots of p-Stat3 and myostatin from muscles of CKD or sham-operated mice of the following groups: C/EBPδ−/−, C/EBPδ+/− or control (WT). FIG. 23E. Cryosections of gastrocnemius muscles from mice that were transfected with lentivirus expressing Stat3C-GPF or GFP and treated with anti-myostatin inhibitor or PBS. The sections were immunostained with p-Smad2/3 (red, lower panel). […] FIG. 23F. GFP-positive areas in myofibers were measured and the mean myofiber sizes of each group are shown (left panel). The percentage of p-Smad2/3 positive nuclei to total nuclei was calculated (right panel; mean±SEM, *p<0.05 vs. GFP/PBS).
All animal experiments and procedures were approved by the Baylor College of Medicine Institutional Animal Care and Use Committee (IACUC). Subtotal nephrectomy was used to create CKD in mice (Zhang et al., 2011; May et al., 1987). To induce diabetes, 12-week-old Stat3^flox/flox and Stat3 KO mice were injected intraperitoneally with 2 doses of 150 mg/kg/d STZ (Sigma-Aldrich) in 0.1 M citrate buffer (pH 4). Control mice were injected with the citrate buffer. […]

The mark [1] stands for this setting: CKD mice, 6.25 mg/kg subcutaneously daily for 14 days vs. D5W.
[2] abbreviates: CKD mice, at 2 weeks, EDL muscles.

For `COc1ccc(S(=O)(=O)Nc2cc(-c3c(O)ccc4ccccc34)c(O)c3ccccc23)cc1` [C188-9], under setting [1], the body weights entry is on record as “significantly greater” and the “level of p-Stat3 in muscle” value was “decreased”. Where the note is “CKD mice, 14 days”, the “Akt phosphorylation in muscle” value is listed as “higher” and the “CKD-induced phosphorylation of p-Smad2/3” value was “blocked”. Moreover, for the setting “CKD mice, 14 days vs. D5W”, the grip strength entry is recorded as “improved grip strength”. In addition, under “CKD mice, 14 days, gastrocnemius lysates”, the “C/EBPδ and myostatin proteins in muscle” value is recorded as “decreased”. The “CKD-stimulated mRNA expressions of C/EBPδ and myostatin” value (CKD mice, RT-PCR) is “suppressed”. For the setting “CKD mice, after 14 days vs. D5W”, the “weights of gastrocnemius and tibialis anterior muscles” value is listed as “greater”. In addition, under setting [2], the muscle protein degradation result was “decreased protein degradation” and the muscle protein synthesis result was “improved muscle protein synthesis”. Besides, the “C/EBPδ or myostatin mRNAs or proteins in muscle” value (control mice without CKD) is listed as “did not change”. Further, for the setting “control, wild type mice without CKD”, the “food intake, body weight, muscle mass or grip strength” value is on record as “did not significantly affect”.
